What follows are compounds tested against T1, Cholecystokinin receptor type A (Rattus norvegicus) (UniProt P30551). Details: 10 uM.
T1 sequence (whole entry): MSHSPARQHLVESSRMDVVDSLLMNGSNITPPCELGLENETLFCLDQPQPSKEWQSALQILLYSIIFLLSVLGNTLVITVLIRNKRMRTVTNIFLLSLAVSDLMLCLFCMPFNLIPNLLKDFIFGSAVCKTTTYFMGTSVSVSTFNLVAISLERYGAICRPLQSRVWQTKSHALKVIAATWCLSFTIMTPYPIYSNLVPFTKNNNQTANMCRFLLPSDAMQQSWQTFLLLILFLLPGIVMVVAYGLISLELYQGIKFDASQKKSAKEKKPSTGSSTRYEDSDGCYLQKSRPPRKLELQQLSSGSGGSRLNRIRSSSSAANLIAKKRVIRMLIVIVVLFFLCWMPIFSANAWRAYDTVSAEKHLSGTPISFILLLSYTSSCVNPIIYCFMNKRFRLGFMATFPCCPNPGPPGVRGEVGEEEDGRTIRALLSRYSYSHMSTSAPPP

inhibition [%] | SMILES
20 | Cc1noc(C)c1-c1nc(CC(C)(NC(=O)OC2C3CC4CC(C3)CC2C4)C(=O)NCCc2ccccc2)no1 (centres undefined)
22 | O=C(NC1(C(=O)NCCc2ccccc2)Cc2ccccc2C1)OC1C2CC3CC(C2)CC1C3 (centres undefined)

The compounds below were run against T2, Gastrin/cholecystokinin type B receptor (Mus musculus) (UniProt P56481). Details: Cerebral cortex; 1 uM.
T2 sequence (whole entry): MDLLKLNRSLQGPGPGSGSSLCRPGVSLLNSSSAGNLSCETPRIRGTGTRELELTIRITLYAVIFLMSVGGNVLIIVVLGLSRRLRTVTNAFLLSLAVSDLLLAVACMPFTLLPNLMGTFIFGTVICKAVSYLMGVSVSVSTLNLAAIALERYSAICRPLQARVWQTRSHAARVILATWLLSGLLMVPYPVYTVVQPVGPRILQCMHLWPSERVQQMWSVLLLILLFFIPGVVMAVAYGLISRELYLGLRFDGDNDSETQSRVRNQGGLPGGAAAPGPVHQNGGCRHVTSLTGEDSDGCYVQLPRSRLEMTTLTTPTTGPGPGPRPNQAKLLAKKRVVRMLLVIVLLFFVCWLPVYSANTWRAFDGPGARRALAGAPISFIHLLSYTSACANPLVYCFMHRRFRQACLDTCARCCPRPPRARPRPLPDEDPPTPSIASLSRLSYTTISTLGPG
Type: tissue-based

inhibition [%] | SMILES
8 | CC(CCCN1C(=O)c2ccccc2C1=O)(NC(=O)OC1C2CC3CC(C2)CC1C3)C(=O)NCCc1ccccc1 (centres undefined)
3 | CC(CCCN)(NC(=O)OC1C2CC3CC(C2)CC1C3)C(=O)NCCc1ccccc1 (centres undefined)

These compounds were tested against T1, Cholecystokinin receptor type A (Rattus norvegicus). Details: 1 uM.

inhibition [%] | SMILES
43 | COc1ccc(CC(C)(NC(=O)OC2C3CC4CC(C3)CC2C4)C(=O)N[C@H](CO)[C@H](O)c2ccccc2)cc1 (some centres undefined)

The compounds below were run against T2, Gastrin/cholecystokinin type B receptor (Mus musculus). Details: Cerebral cortex; 10 uM.
Type: tissue-based

inhibition [%] | SMILES
28 | Cc1noc(C)c1-c1nc(CC(C)(NC(=O)OC2C3CC4CC(C3)CC2C4)C(=O)NCCc2ccccc2)no1 (centres undefined)

These compounds were tested against T3, Cholecystokinin receptor type A (Rattus norvegicus, UniProt P30551). Details: not given.
T3 sequence (P30551 whole entry): T1 sequence (whole entry)

SMILES | IC50 [nM]
O=C(NC1(C(=O)NCCc2ccccc2)CC2(Cc3cccc4cccc(c34)C2)C1)OC1C2CC3CC(C2)CC1C3 (centres undefined) | 7220
Cc1noc(C)c1CC(C)(NC(=O)OC1C2CC3CC(C2)CC1C3)C(=O)NCCc1ccccc1 (centres undefined) | 6940
CN(C)C(=O)c1oc2ccccc2c1CC(C)(NC(=O)OC1C2CC3CC(C2)CC1C3)C(=O)NCCc1ccccc1 (centres undefined) | 65
CC(Cc1ccc(Oc2ccccc2)cc1)(NC(=O)OC1C2CC3CC(C2)CC1C3)C(=O)N[C@H](CO)[C@H](O)c1ccccc1 (some centres undefined) | 616
CC(Cc1ccc2c(c1)C(C)(C)CCC2(C)C)(NC(=O)OC1C2CC3CC(C2)CC1C3)C(=O)NCCc1ccccc1 (centres undefined) | 19800
CC(=O)Nc1nc(CC(C)(NC(=O)OC2C3CC4CC(C3)CC2C4)C(=O)NCCc2ccccc2)cs1 (centres undefined) | 5350

Now from value to compound:

IC50 [nM] | SMILES
2180 | CC(Cc1c[nH]c2ccc(F)cc12)(NC(=O)OC1C2CC3CC(C2)CC1C3)C(=O)NC[C@H](NC(=O)CCC(=O)O)c1ccccc1 (some centres undefined)
2860 | C[C@](Cc1c[nH]c2ccc(F)cc12)(NC(=O)OC1C2CC3CC(C2)CC1C3)C(=O)NC[C@H](NC(=O)CCC(=O)O)c1ccccc1 (some centres undefined)
2650 | CC(Cc1c[nH]c2ccc(F)cc12)(NC(=O)OC1C2CC3CC(C2)CC1C3)C(=O)NC[C@H](NC(=O)CCC(=O)OCc1ccccc1)c1ccccc1 (some centres undefined)
681 | C[C@@](Cc1c[nH]c2ccccc12)(NC(=O)OC1C2CC3CC(C2)CC1C3)C(=O)N[C@H](CO)[C@H](O)c1ccccc1 (some centres undefined)
583 | O=C(CCC(=O)OCc1ccccc1)N[C@@H](CNC(=O)C(Cc1c[nH]c2ccc(F)cc12)NC(=O)OC1C2CC3CC(C2)CC1C3)c1ccccc1 (some centres undefined)
1350 | O=C(O)CCC(=O)N[C@@H](CNC(=O)C1(NC(=O)OC2C3CC4CC(C3)CC2C4)Cc2ccccc2C1)c1ccccc1 (some centres undefined)
1910 | O=C(O)CCC(=O)N[C@@H](CNC(=O)C(Cc1c[nH]c2ccc(F)cc12)NC(=O)OC1C2CC3CC(C2)CC1C3)c1ccccc1 (some centres undefined)

— ChEMBL document CHEMBL1130500 (Bioorg Med Chem Lett, 1997)
